How the values were obtained:
[1] = target: T1, recombinant alpha-glucosidase II (murine full-length glucosidase II, alpha and beta subunits, Glu 2) (Mus musculus, UniProt Q8BHN3); assay: Alpha-glucosidase II assay (4-methylumbelliferyl-alpha-D-pyranoside substrate, fluorescence); type: biochemical; details: Glucosidase 2; read-out: Glu2 IC50
T1 construct: made in house; host or cells: HEK-293T cells transduced with BacMam viruses (75% alpha, 25% beta); protein harvested from culture supernatant

[2] = target: T2, recombinant human GBA (beta-glucocerebrosidase) (Homo sapiens, UniProt P04062); assay: Beta-glucocerebrosidase (GBA, glucosylceramidase) assay (4-methylumbelliferyl-beta-D-pyranoside substrate, fluorescence); type: biochemical
T2 sequence (P04062 40-536): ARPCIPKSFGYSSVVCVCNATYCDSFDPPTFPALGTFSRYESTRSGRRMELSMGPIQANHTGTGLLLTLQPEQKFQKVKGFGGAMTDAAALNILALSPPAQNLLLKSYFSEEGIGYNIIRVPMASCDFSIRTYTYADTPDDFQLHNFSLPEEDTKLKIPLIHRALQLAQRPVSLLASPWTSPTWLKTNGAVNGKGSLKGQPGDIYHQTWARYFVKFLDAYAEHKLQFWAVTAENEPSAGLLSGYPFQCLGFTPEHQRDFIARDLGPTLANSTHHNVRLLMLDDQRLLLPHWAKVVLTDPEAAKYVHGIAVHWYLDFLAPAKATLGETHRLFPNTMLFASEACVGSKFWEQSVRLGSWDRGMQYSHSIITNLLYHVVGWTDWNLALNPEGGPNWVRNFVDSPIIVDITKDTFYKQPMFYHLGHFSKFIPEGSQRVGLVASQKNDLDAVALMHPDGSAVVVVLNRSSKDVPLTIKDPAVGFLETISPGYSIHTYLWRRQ
Method: Beta-glucocerebrosidase (GBA, also referred to glucosylceramidase): To analyze inhibitory effects of a test compound, commercially available recombinant human GBA was incubated with multiple dilutions of test compound for 60 minutes at 37° C. 4-methylumbelliferyl-beta-D-pyranoside was then introduced to the mixture as substrate. Following incubation for 60 minutes at 37° C., 1,4-methyllumbelliferone was generated, and the reaction was stopped with the stop solution (0.5 M glycine; 0.3 M NaOH, pH 10). 1,4-methyllumbelliferone was detected by fluorescence (excitation at 365 nm, emission at 440 nm). Relative fluorescence compared to untreated enzymatic activity and test compound concentration is then plotted as a function of percent inhibition. The IC50 was determined using a 4-PL curve fit as the measure of relative inhibitory activity of each test compound (see Table 3).

T1 sequence (O08795 15-521): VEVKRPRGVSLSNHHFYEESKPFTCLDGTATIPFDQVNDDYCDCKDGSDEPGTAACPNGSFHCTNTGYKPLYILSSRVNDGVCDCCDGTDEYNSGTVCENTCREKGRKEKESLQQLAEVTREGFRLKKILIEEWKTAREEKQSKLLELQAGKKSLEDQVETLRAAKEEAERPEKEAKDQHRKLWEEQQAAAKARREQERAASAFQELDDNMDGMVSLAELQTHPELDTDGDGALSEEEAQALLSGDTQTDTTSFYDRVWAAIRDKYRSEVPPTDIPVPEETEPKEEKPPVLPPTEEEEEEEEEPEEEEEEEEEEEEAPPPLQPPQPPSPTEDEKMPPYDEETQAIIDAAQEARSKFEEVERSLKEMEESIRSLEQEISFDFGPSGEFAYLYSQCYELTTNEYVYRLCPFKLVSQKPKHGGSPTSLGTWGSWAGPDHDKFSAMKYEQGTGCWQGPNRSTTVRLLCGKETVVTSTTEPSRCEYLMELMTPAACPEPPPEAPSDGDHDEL
T1 sequence (Q8BHN3 33-944): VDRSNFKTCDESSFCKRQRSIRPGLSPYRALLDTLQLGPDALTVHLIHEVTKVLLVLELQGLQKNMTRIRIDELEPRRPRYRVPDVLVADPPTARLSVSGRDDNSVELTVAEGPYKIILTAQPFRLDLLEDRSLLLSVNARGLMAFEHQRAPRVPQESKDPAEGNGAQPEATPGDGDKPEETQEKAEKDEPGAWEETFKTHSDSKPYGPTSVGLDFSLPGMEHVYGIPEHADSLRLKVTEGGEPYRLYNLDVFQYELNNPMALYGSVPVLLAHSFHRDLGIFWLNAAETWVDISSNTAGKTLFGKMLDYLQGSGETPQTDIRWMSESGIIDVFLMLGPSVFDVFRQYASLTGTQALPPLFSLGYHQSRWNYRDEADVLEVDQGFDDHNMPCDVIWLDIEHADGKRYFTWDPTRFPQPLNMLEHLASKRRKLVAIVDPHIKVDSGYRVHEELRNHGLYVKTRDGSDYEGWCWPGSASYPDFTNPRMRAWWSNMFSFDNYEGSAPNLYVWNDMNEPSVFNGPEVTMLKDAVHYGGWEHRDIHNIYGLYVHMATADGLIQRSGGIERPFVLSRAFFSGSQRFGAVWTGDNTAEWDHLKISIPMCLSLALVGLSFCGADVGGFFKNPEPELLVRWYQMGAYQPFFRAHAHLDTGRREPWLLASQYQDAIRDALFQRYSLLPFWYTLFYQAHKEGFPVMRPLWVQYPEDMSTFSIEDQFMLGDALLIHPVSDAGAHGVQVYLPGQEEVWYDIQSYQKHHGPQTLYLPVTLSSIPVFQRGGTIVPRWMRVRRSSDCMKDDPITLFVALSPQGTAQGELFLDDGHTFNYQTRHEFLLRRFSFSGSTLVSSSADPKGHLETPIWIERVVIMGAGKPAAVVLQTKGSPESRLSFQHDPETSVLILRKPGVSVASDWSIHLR

Compound: OC[C@@H]1[C@@H](O)[C@H](O)[C@@H](O)CN1CCc1ccc(CCNc2cc(Cl)cc(C3=COCCO3)c2)cc1 [Compound 1161, (2R,3R,4R,5S)-1-{2-[4-(2-{[3-chloro-5-(5,6-dihydro-1,4-dioxin-2-yl)phenyl]amino}ethyl)phenyl]ethyl}-2-(hydroxymethyl)piperidine-3,4,5-triol]
- IC50 [1]: 0.002 µM
- IC50 [2]: 2.82 µM

Compound: OC[C@@H]1[C@@H](O)[C@H](O)[C@@H](O)CN1CCc1ccc(CCNc2cc(Cl)cc(-c3ncccn3)c2)cc1 [Compound 1162, (2R,3R,4R,5S)-1-{2-[4-(2-{[3-chloro-5-(pyrimidin-2-yl)phenyl]amino}ethyl)phenyl]ethyl}-2-(hydroxymethyl)piperidine-3,4,5-triol]
- IC50 [1]: < 0.001 µM
- IC50 [2]: 2.68 µM

Compound: OC[C@@H]1[C@@H](O)[C@H](O)[C@@H](O)CN1CCc1ccc(CCNc2cc(Cl)cc(-c3cccnn3)c2)cc1 [Compound 1163, (2R,3R,4R,5S)-1-{2-[4-(2-{[3-chloro-5-(pyridazin-3-yl)phenyl]amino}ethyl)phenyl]ethyl}-2-(hydroxymethyl)piperidine-3,4,5-triol]
- IC50 [1]: < 0.001 µM
- IC50 [2]: 6.82 µM

Compound: [N-]=[N+]=Nc1ccc(NCc2ccc(-c3ccc(CN4C[C@H](O)[C@@H](O)[C@H](O)[C@H]4CO)cc3)cc2)c([N+](=O)[O-])c1 [Compound 1166, (2R,3R,4R,5S)-1-[(4′-{[(4-azido-2-nitrophenyl)amino]methyl}-[1,1′-biphenyl]-4-yl)methyl]-2-(hydroxymethyl)piperidine-3,4,5-triol]
- IC50 [1]: 2.01 µM
- IC50 [2]: 5.63 µM

Compound: [N-]=[N+]=Nc1ccc(NCc2cccc(CN3C[C@H](O)[C@@H](O)[C@H](O)[C@H]3CO)c2)c([N+](=O)[O-])c1 [Compound 1169, (2R,3R,4R,5S)-1-[(3-{[(4-azido-2-nitrophenyl)amino]methyl}phenyl)methyl]-2-(hydroxymethyl)piperidine-3,4,5-triol]
- IC50 [1]: 16.1 µM
- IC50 [2]: 83.5 µM

Compound: [N-]=[N+]=Nc1ccc(NCc2ccc(CN3C[C@H](O)[C@@H](O)[C@H](O)[C@H]3CO)cc2)c([N+](=O)[O-])c1 [Compound 1170, (2R,3R,4R,5S)-1-[(4-{[(4-azido-2-nitrophenyl)amino]methyl}phenyl)methyl]-2-(hydroxymethyl)piperidine-3,4,5-triol]
- IC50 [1]: < 0.001 µM
- IC50 [2]: 29.9 µM

Compound: [N-]=[N+]=Nc1ccc(NCCc2cc(CCN3C[C@H](O)[C@@H](O)[C@H](O)[C@H]3CO)ccc2C2CCCCC2)c([N+](=O)[O-])c1 [Compound 1171, (2R,3R,4R,5S)-1-[2-(3-{2-[(4-azido-2-nitrophenyl)amino]ethyl}-4-cyclohexylphenyl)ethyl]-2-(hydroxymethyl)piperidine-3,4,5-triol]
- IC50 [1]: 1.01 µM
- IC50 [2]: 0.204 µM

Compound: [N-]=[N+]=Nc1ccc(NCCc2ccc(CCN3C[C@H](O)[C@@H](O)[C@H](O)[C@H]3CO)c3c2OCCO3)c([N+](=O)[O-])c1 [Compound 1173, (2R,3R,4R,5S)-1-[2-(8-{2-[(4-azido-2-nitrophenyl)amino]ethyl}-2,3-dihydro-1,4-benzodioxin-5-yl)ethyl]-2-(hydroxymethyl)piperidine-3,4,5-triol]
- IC50 [1]: 0.666 µM
- IC50 [2]: 5.32 µM

Compound: [N-]=[N+]=Nc1ccc(NCc2cc(CCN3C[C@H](O)[C@@H](O)[C@H](O)[C@H]3CO)cs2)c([N+](=O)[O-])c1 [Compound 1174, (2R,3R,4R,5S)-1-[2-(5-{[(4-azido-2-nitrophenyl)amino]methyl}thiophen-3-yl)ethyl]-2-(hydroxymethyl)piperidine-3,4,5-triol]
- IC50 [1]: < 0.001 µM
- IC50 [2]: 0.805 µM

Compound: [N-]=[N+]=Nc1ccc(NCCn2cc(CCN3C[C@H](O)[C@@H](O)[C@H](O)[C@H]3CO)c3ccccc32)c([N+](=O)[O-])c1 [Compound 1177, (2R,3R,4R,5S)-1-[2-(1-{2-[(4-azido-2-nitrophenyl)amino]ethyl}-1H-indol-3-yl)ethyl]-2-(hydroxymethyl)piperidine-3,4,5-triol]
- IC50 [1]: 0.065 µM
- IC50 [2]: 3.32 µM

Compound: [N-]=[N+]=Nc1ccc(NCCc2cc(CCN3C[C@H](O)[C@@H](O)[C@H](O)[C@H]3CO)cs2)c([N+](=O)[O-])c1 [Compound 1179, (2R,3R,4R,5S)-1-[2-(5-{2-[(4-azido-2-nitrophenyl)amino]ethyl}thiophen-3-yl)ethyl]-2-(hydroxymethyl)piperidine-3,4,5-triol]
- IC50 [1]: < 0.001 µM
- IC50 [2]: 0.38 µM

Compound: COc1cc(CN2CCCO2)cc(NCCCCCCN2C[C@H](O)[C@@H](O)[C@H](O)[C@H]2CO)c1 [Compound 1182, (2R,3R,4R,5S)-2-(hydroxymethyl)-1-[6-({3-methoxy-5-[(1,2-oxazolidin-2-yl)methyl]phenyl}amino)hexyl]piperidine-3,4,5-triol]
- IC50 [1]: 0.002 µM
- IC50 [2]: 6.13 µM

Compound: OC[C@@H]1[C@@H](O)[C@H](O)[C@@H](O)CN1CCCCCCNc1cc(Cl)cc(CN2CCCO2)c1 [Compound 1183, (2R,3R,4R,5S)-1-[6-({3-chloro-5-[(1,2-oxazolidin-2-yl)methyl]phenyl}amino)hexyl]-2-(hydroxymethyl)piperidine-3,4,5-triol]
- IC50 [1]: 0.004 µM
- IC50 [2]: 5.62 µM

Compound: O=Cc1cc(-c2ncccn2)ccc1NCCCCCCN1C[C@H](O)[C@@H](O)[C@H](O)[C@H]1CO [Compound 1184, 5-(pyrimidin-2-yl)-2-({6-[(2R,3R,4R,5S)-3,4,5-trihydroxy-2-(hydroxymethyl)piperidin-1-yl]hexyl}amino)benzaldehyde]
- IC50 [1]: 0.001 µM
- IC50 [2]: 0.95 µM

Compound: [N-]=[N+]=Nc1ccc(NCCc2ccc(CCN3C[C@H](O)[C@@H](O)[C@H](O)[C@H]3CO)s2)c([N+](=O)[O-])c1 [Compound 1186, (2R,3R,4R,5S)-1-[2-(5-{2-[(4-azido-2-nitrophenyl)amino]ethyl}hiophen-2-yl)ethyl]-2-(hydroxymethyl)piperidine-3,4,5-triol]
- IC50 [1]: 0.001 µM
- IC50 [2]: 1.28 µM

Compound: [N-]=[N+]=Nc1ccc(NCCc2cncc(CCN3C[C@H](O)[C@@H](O)[C@H](O)[C@H]3CO)n2)c([N+](=O)[O-])c1 [Compound 1187, (2R,3R,4R,5S)-1-[2-(6-{2-[(4-azido-2-nitrophenyl)amino]ethyl}pyrazin-2-yl)ethyl]-2-(hydroxymethyl)piperidine-3,4,5-triol]
- IC50 [1]: 0.003 µM
- IC50 [2]: 16.4 µM

Compound: [N-]=[N+]=Nc1ccc(NCCc2nccc(CCN3C[C@H](O)[C@@H](O)[C@H](O)[C@H]3CO)n2)c([N+](=O)[O-])c1 [Compound 1188, (2R,3R,4R,5S)-1-[2-(2-{2-[(4-azido-2-nitrophenyl)amino]ethyl}pyrimidin-4-yl)ethyl]-2-(hydroxymethyl)piperidine-3,4,5-triol]
- IC50 [1]: 1.14 µM
- IC50 [2]: 9.05 µM

Compound: [N-]=[N+]=Nc1ccc(NCCc2cnn(CCN3C[C@H](O)[C@@H](O)[C@H](O)[C@H]3CO)c2)c([N+](=O)[O-])c1 [Compound 1191, (2R,3R,4R,5S)-1-[2-(4-{2-[(4-azido-2-nitrophenyl)amino]ethyl}-1H-pyrazol-1-yl)ethyl]-2-(hydroxymethyl)piperidine-3,4,5-triol]
- IC50 [1]: 20.3 µM
- IC50 [2]: 28.6 µM

Compound: OC[C@@H]1[C@@H](O)[C@H](O)[C@@H](O)CN1CCCCCCNc1cc(Cl)cc(-c2cnccn2)c1 [Compound 1196, (2R,3R,4R,5S)-1-(6-{[3-chloro-5-(pyrazin-2-yl)phenyl]amino}hexyl)-2-(hydroxymethyl)piperidine-3,4,5-triol]
- IC50 [1]: 0.002 µM
- IC50 [2]: 0.773 µM

Compound: COc1cc(NCCCCCCN2C[C@H](O)[C@@H](O)[C@H](O)[C@H]2CO)cc(-c2cnccn2)c1 [Compound 1197, (2R,3R,4R,5S)-2-(hydroxymethyl)-1-(6-{[3-methoxy-5-(pyrazin-2-yl)phenyl]amino}hexyl)piperidine-3,4,5-triol]
- IC50 [1]: 0.001 µM
- IC50 [2]: 2.07 µM

Compound: OC[C@@H]1[C@@H](O)[C@H](O)[C@@H](O)CN1CCCCCCNc1ccc(-c2cnccn2)cc1Cl [Compound 1198, (2R,3R,4R,5S)-1-(6-{[2-chloro-4-(pyrazin-2-yl)phenyl]amino}hexyl)-2-(hydroxymethyl)piperidine-3,4,5-triol]
- IC50 [1]: 0.017 µM
- IC50 [2]: 2.7 µM

Compound: COc1cc(-c2cnccn2)ccc1NCCCCCCN1C[C@H](O)[C@@H](O)[C@H](O)[C@H]1CO [Compound 1199, (2R,3R,4R,5S)-2-(hydroxymethyl)-1-(6-{[2-methoxy-4-(pyrazin-2-yl)phenyl]amino}hexyl)piperidine-3,4,5-triol]
- IC50 [1]: 0.012 µM
- IC50 [2]: 3.96 µM

Compound: [N-]=[N+]=Nc1ccc(NCCc2ccc(CCN3C[C@H](O)[C@@H](O)[C@H](O)[C@H]3CO)cc2)c([N+](=O)[O-])c1 [Compound 1200, (2R,3R,4R,5S)-1-[2-(4-{2-[(4-azido-2-nitrophenyl)amino]ethyl}phenyl)ethyl]-2-(hydroxymethyl)piperidine-3,4,5-triol]
- IC50 [1]: 0.006 µM
- IC50 [2]: 1.45 µM

From patent US20250197372A1 (priority 2020, published 2025)
